From BindingDB's records for doi:10.1016/j.bmcl.2003.11.047 (National Chung-Hsing University, 2004)

Biological target: Phospholipase A2 (Naja mossambica)
Experiment: Binding affinity against phospholipase A2 of Naja mocambique mocambique

| Ki | Compound |
| --- | --- |
| 15 µM | CCCCCCCCNC(=O)Oc1ccc(OC(=O)NCCCCCCCC)cc1 [Octyl-carbamic acid 4-octylcarbamoyloxy-phenyl ester] |
| 4 µM | CCCCCCCCNC(=O)Oc1cccc(OC(=O)NCCCCCCCC)c1 [Octyl-carbamic acid 3-octylcarbamoyloxy-phenyl ester] |
